In one data set the test system is serum cholesterol. The data set is described as follows: Hypolipidemic activity: decrease in serum cholesterol. The class given is in vivo. Particulars: 50 mg % in diet, one week, male SD rats. Here is the method: (§1) A test compound (50 mg %) was added to a commercial diet, and male SD rats (body weight: 120-140 g, a group of 5 rats) were fed with the diet ad libitum for one week. After the experimental period, blood was collected from the tail vein of the rats under ether anesthesia. Then, liver was excised from the rats and the weight thereof was measured. On the other hand, serum cholesterol and serum triglyceride were measured according to the methods of Zak (Amer. J. Clin. Pathol., Vol. 24, page 1307(1954)) and Van Handel-Zilversmit (J. Lab. & Clin. Med., Vol. 50, page 152(1957)), respectively. Based on the results obtained above, the decrease (%) in serum cholesterol or triglyceride and increase (%) in liver weight were calculated by the following formulae: [formula]

Data set [1] relates to platelet aggregation. The data set is described as follows: Platelet aggregation-inhibiting activity after oral administration (ex vivo). The data set is classed as in vivo. Particulars: Rattus norvegicus, 1 h, 100 mg/kg oral, blood collected one hour after administration, SD rats, read-out: Percentage inhibition of platelet aggregation (%). On the procedure: Blood was collected from the abdominal aorta of male SD rats (body weight: 250-300 g) which were anesthetized with ether. Nine volumes of said blood were mixed with one volume of an aqueous 3.8% (w/v) trisodium citrate solution, and the mixture was centrifuged at 500×g for 5 minutes to give platelet-rich plasma (hereinafter referred to as "PRP") as the supernatant solution. The bottom layer was further centrifuged at 1000×g for 10 minutes to give platelet-poor plasma (hereinafter referred to as "PPP") as the supernatant solution. […] After the mixture was stirred at 1100 rpm at 37° C. for 2 minutes, 25 μl of a collagen solution (prepared by Holmsen's method described in Biochim. Biophys. Acta, Vol. 186, page 254(1969)) was added thereto, and the percentage inhibition of platelet aggregation was calculated in accordance with the following formula from the degree of the platelet aggregation which was estimated by Born's method (Nature, 194, page 927(1962)). […]
A test compound was suspended in a solution containing 0.25% of carboxymethylcellulose (sodium salt) and 0.01% of Tween 80, and the suspension was administered orally to make SD rats (a group of 4 rats). […] Thereafter, said blood was treated in the same manner as described in Experiment 2, and the percentage inhibition of platelet aggregation was calculated in accordance with the following formula: [formula]

The next data set deals with serum triglyceride. The data set is described as follows: Hypolipidemic activity: decrease in serum triglyceride. The class given is in vivo. To be noted: 50 mg % in diet, one week, male SD rats. On the procedure: as §1
Another data set deals with liver. The data set is described as follows: Increase in liver weight (hypolipidemic experiment). The class given is in vivo. To be noted: 50 mg % in diet, one week, male SD rats. On the procedure: as §1
Data set [2] relates to platelet aggregation. Briefly: Platelet aggregation-inhibiting activity in vitro (collagen, platelet-rich plasma). The class given is cell-based, male SD rats. To be noted: final concentration 100 μg/ml, rat PRP, 37° C. Here is the method:
Blood was collected from the abdominal aorta of male SD rats (body weight: 250-300 g) which were anesthetized with ether. Nine volumes of said blood were mixed with one volume of an aqueous 3.8% (w/v) trisodium citrate solution, and the mixture was centrifuged at 500×g for 5 minutes to give platelet-rich plasma (hereinafter referred to as "PRP") as the supernatant solution. The bottom layer was further centrifuged at 1000×g for 10 minutes to give platelet-poor plasma (hereinafter referred to as "PPP") as the supernatant solution. PRP was diluted with PPP so that the blood platelet count was 8-10×10^5 cells/mm^3.Then, a mixture of 200 μl of said diluted PRP and 25 μl of a test compound solution (final concentration: 100 μg/ml) was introduced into a glass cell of SIENCO aggregometer (Sienco Inc., Morrison, Colo. Model DP-247-D). After the mixture was stirred at 1100 rpm at 37° C. for 2 minutes, 25 μl of a collagen solution (prepared by Holmsen's method described in Biochim. Biophys. Acta, Vol. 186, page 254(1969)) was added thereto, and the percentage inhibition of platelet aggregation was calculated in accordance with the following formula from the degree of the platelet aggregation which was estimated by Born's method (Nature, 194, page 927(1962)). [formula]

For the next data set, the system named is mice. Briefly: Acute oral toxicity in mice. The class given is in vivo. Particulars: 1000 mg/kg oral, 7 days after administration. The text has this: The compound (I) (R^2 =H) of the present invention can be used for pharmaceutical use in the form of either a free acid or a pharmaceutically acceptable salt thereof. Pharmaceutically acceptable salts of the compound (I) (R^2 =H) include, for example, alkali metal salts such as sodium and potassium salts; alkaline earth metal salts such as calcium and magnesium salts; salts thereof with amino acids such as lysine, ornithine, arginine and histidine salts; and ammonium salt. Such pharmaceutically acceptable salts may be prepared, for example, by neutralizing the free acid with a stoichiometrically equimolar amount of a base such as an alkali metal hydroxide, an alkaline earth metal hydroxide, ammonia or a basic amino acid. The compound (I) and a salt thereof can be administered either orally or parenterally. For oral administration, the compound (I) or a salt thereof may be used in the form of tablets, powder, capsules, granules and the like. Known medicinal excipients such as calcium carbonate, calcium phosphate, corn starch, potato starch, sugar, lactose, talc, magnesium stearate and so forth may be used in making these pharmaceutical preparations. Alternatively, the compound (I) or a salt thereof may be used for oral administration in the form of aqueous or oily suspensions, solutions, syrps or elixirs. […]

SMILES strings stand for the structures. Some results are limits rather than exact numbers.

As for `CCOC(=O)C(C)(C)Oc1ccc(Cl)cc1` [Clofibrate, 2-(4-chlorophenoxy)-2-methylpropanoic acid ethyl ester, reference compound], the “Decrease (%) in serum cholesterol” value in the data set with serum cholesterol was determined as 15%. In the data set on platelet aggregation [1], the inhibition (usually the share of the control response that was lost under treatment) at 100 mg/kg is 53 ± 19%. Besides, the “Decrease (%) in serum triglyceride” value in the data set on serum triglyceride was 16%. The “increase (%) in liver weight” value in the data set on liver is reported as 12%. In the data set on platelet aggregation [2], this molecule gave an inhibition at 100 µg/mL below 10%.
As to `CCOC(=O)Cc1nc(-c2ccc(F)cc2)oc1CC(C)C` [ethyl 2-[2-(4-fluorophenyl)-5-isobutyl-4-oxazolyl]acetate], the “Decrease (%) in serum cholesterol” value in the data set with serum cholesterol stood at 13%. Besides, the “Decrease (%) in serum triglyceride” value in the data set on serum triglyceride stood at 66%. Moreover, the inhibition at 100 µg/mL in the data set with platelet aggregation [2] was at least 10%.
`CCOC(=O)Cc1nc(-c2ccc(Cl)cc2)oc1CC(C)C` [ethyl 2-[2-(4-chlorophenyl)-5-isobutyl-4-oxazolyl]acetate]: the inhibition at 100 µg/mL in the data set with platelet aggregation [2] was at least 10%.
Turning to `Cc1oc(-c2ccc(Cl)cc2)nc1CC(=O)O` [2-[2-(4-chlorophenyl)-5-methyl-4-oxazolyl]acetic acid], the “Decrease (%) in serum cholesterol” value in the data set with serum cholesterol worked out at 14%. In addition, the “Decrease (%) in serum triglyceride” value in the data set on serum triglyceride turned out to be 48%.
As to `CCCCCc1oc(-c2ccc(Cl)cc2)nc1CC(=O)OCC` [ethyl 2-[2-(4-chlorophenyl)-5-n-pentyl-4-oxazolyl]acetate], the “Decrease (%) in serum cholesterol” value in the data set on serum cholesterol was found to be 15%. Further, in the data set on serum triglyceride, the “Decrease (%) in serum triglyceride” value is 52%. For the same molecule, in the data set on mice, the mortality result is given as “no mouse dies”.
As for `CCOC(=O)Cc1nc(-c2ccc(Cl)cc2)oc1C` [ethyl 2-[2-(4-chlorophenyl)-5-methyl-4-oxazolyl]acetate], the “Decrease (%) in serum cholesterol” value in the data set with serum cholesterol was 19%. In the data set on serum triglyceride, the “Decrease (%) in serum triglyceride” value turned out to be 36%. Also, the mortality entry in the data set with mice is listed as “no mouse dies”.
As to `CCOC(=O)Cc1nc(-c2ccc(Cl)cc2)oc1C(C)C` [ethyl 2-[2-(4-chlorophenyl)-5-isopropyl-4-oxazolyl]acetate], the “Decrease (%) in serum cholesterol” value in the data set with serum cholesterol is 18%. Besides, the “Decrease (%) in serum triglyceride” value in the data set on serum triglyceride is listed as 55%. The molecule also yielded an inhibition at 100 µg/mL with platelet aggregation [2] of at least 10%.
In the case of `CCCCCc1oc(-c2ccc(Cl)cc2)nc1CC(=O)O` [2-[2-(4-chlorophenyl)-5-n-pentyl-4-oxazolyl]acetic acid], the “Decrease (%) in serum cholesterol” value with serum cholesterol worked out at 19%. Moreover, in the data set on serum triglyceride, the “Decrease (%) in serum triglyceride” value is reported as 60%.
Take `CC(C)c1oc(-c2ccc(Cl)cc2)nc1CC(=O)O` [2-[2-(4-chlorophenyl)-5-isopropyl-4-oxazolyl]acetic acid]: in the data set with serum cholesterol, the “Decrease (%) in serum cholesterol” value was 12%. Also, in the data set with serum triglyceride, the “Decrease (%) in serum triglyceride” value came to 39%. Also, the inhibition at 100 µg/mL in the data set on platelet aggregation [2] is at least 10%.
As to `CC(C)Cc1oc(-c2ccc(F)cc2)nc1CC(=O)O` [2-[2-(4-fluorophenyl)-5-isobutyl-4-oxazolyl]acetic acid], the “Decrease (%) in serum cholesterol” value in the data set with serum cholesterol turned out to be 11%. In the data set on serum triglyceride, the “Decrease (%) in serum triglyceride” value is 51%.
`CC(C)c1oc(-c2ccccc2)nc1CC(=O)O` [2-(2-phenyl-5-isopropyl-4-oxazolyl)acetic acid]: the inhibition at 100 mg/kg in the data set with platelet aggregation [1] amounted to 97 ± 2%. The same molecule registered an inhibition at 100 µg/mL with platelet aggregation [2] of at least 10%.
As to `CC(C)c1oc(-c2ccc(F)cc2)nc1CC(=O)O` [2-[2-(4-fluorophenyl)-5-isopropyl-4-oxazolyl]acetic acid], the “Decrease (%) in serum cholesterol” value with serum cholesterol is given as 21%. Further, in the data set with serum triglyceride, the “Decrease (%) in serum triglyceride” value worked out at 42%. The molecule further gave an inhibition at 100 µg/mL in the data set with platelet aggregation [2] of at least 10%.
In the same order, the values of `CCOC(=O)Cc1nc(-c2ccc(F)cc2)oc1C(C)C` [ethyl 2-[2-(4-fluorophenyl)-5-isopropyl-4-oxazolyl]acetate] are 23%, 33% and at least 10%.

For the origin of these results see patent publication US4535089A, “Alkyloxazolylacetic acid derivative for the treatment of hyperlipidemia” (Tanabe Seiyaku Co., Ltd., priority 1982, dated 1985).
